Source: patent US4827004A, “Isoprene derivatives” (Hoffmann-La Roche Inc., priority 1986, dated 1989)
Read-outs that look alike come from different tables or passages of the source.

How the values were obtained:
[1] = tested on: mucous membrane of the stomach; assay: ethanol test (mucosa-protective activity; ethanol-induced gastric lesions); assay type: in vivo, male rats; settings: Rattus norvegicus, po, read-out: Ethanol Test ID 50
Procedure: The experimental procedure described hereinafter was used to determine the muscosa-protective property:
The oral administration of absolute ethanol to male rats in a dosage of 1 ml per rat leads within 1 hour to bloody lesions of the mucous membrane of the stomach. Various dosages of the substances to be tested (suspended in 0.125% carboxymethylcellulose) or of the vehicle alone (control) are administered to the rats orally (1 ml per rat) 30 minutes prior to the treatment with ethanol. One hour after the administration of the ethanol the animals are killed, their stomachs are investigated for the presence of lesions and the number and the total dimension of such lesions are determined. The ID50 is that dosage of a test substance which reduces by 50% the number of lesions in comparison to the control group.
(§1) In the following Table there are given for a series of representative compounds of formula I the results of the testing with respect to their mucosa-protective activity ("ethanol test") and to their gastric acid secretion-inhibiting activity. Moreover, this Table contains data concerning the acute toxicity (LD50 in the case of single oral administration to mice).

gastric acid secretion = assay: gastric acid secretion-inhibiting activity (pylorus ligation according to Shay et al.); assay type: in vivo, male rats; settings: Rattus norvegicus, read-out: Gastric acid secretion-inhibition, ID 50
Procedure: The test procedure described hereinafter was used to determine the gastric acid secretion-inhibiting activity:
The pylorus of male rats is ligated under slight ether narcosis in accordance with Shay et al. [Gastroenterology 5, 43 (1945)]. The substances to be tested, suspended in 0.5% carboxymethylcellulose, are administered intraduodenally. Control animals are treated only with the vehicle. Five hours after the ligation the animals are killed, the volume and acidity of their gastric juice are determined and the values obtained are compared with those of control animals. The ID50 is that dosage of a test substance which brings about a 50% decrease of the secretion in comparison to the control animals.
as §1

[2] = acute toxicity (single oral administration); settings: mouse, in vivo, read-out: Toxicity LD 50
Excerpt: Representative compounds of formula I were investigated with respect to their mucosa-protective and gastric acid secretion-inhibiting properties as well as to their toxicity.
as §1

[3] = 30 minutes before ethanol, dosage reducing number of lesions by 50% vs control, male rats
[4] = intraduodenal, 5 hours after pylorus ligation, 50% decrease of secretion vs control, male rats
[5] = p.o., single oral administration to mice

Structure (SMILES) | ED50 [1, 3] | ED50 (gastric acid secretion; [4]) | LD50 ([2]; po) | LD50 [2, 5] | ED50 [1] | ED50 (gastric acid secretion; 5 h)
C=C(C)C(=O)CC/C(C)=C/CC/C(C)=C/C=NO (mixture of isomers) [T, (2E,6E)-3,7,11-trimethyl-10-oxo-2,6,11-dodecatrienal (E/Z)-oxime] | 7.8 mg/kg | 9.3 mg/kg | – | – | – | –
C#CC(CC/C(C)=C/CC/C(C)=C/CO)=NOC (mixture of isomers) [U, (6E,10E)-12-hydroxy-6,10-dimethyl-6,10-dodecadien-1-yn-3-one (E/Z)-O-methyl oxime] | 7.9 mg/kg | 43.9 mg/kg | 1000 to 2000 mg/kg | – | – | –
CC=CC(O)CC/C(C)=C/CC/C(C)=C/CO (mixture of isomers) [V, (2E,6E,11(E/Z))-3,7-dimethyl-2,6,11-tridecatriene-1,10-diol] | 9.3 mg/kg | 57.4 mg/kg | – | – | – | –
C#CC(=O)CC/C(C)=C/CC/C(C)=C/CO [A, (all-E)-12-hydroxy-6,10-dimethyl-6,10-dodecadien-1-yn-3-one] | 0.55 mg/kg | 2 mg/kg | 1000 to 2000 mg/kg | – | – | –
C=CC(=O)CC/C(C)=C/CC/C(C)=C/CO [B, (all-E)-12-hydroxy-6,10-dimethyl-1,6,10-dodecatrien-3-one] | 0.62 mg/kg | 68.2 mg/kg | – | – | – | –
CC#CC(=O)CC/C(C)=C/CC/C(C)=C/CO [C, (all-E)-13-hydroxy-7,11-dimethyl-7,11-tridecadien-2-yn-4-one] | 0.78 mg/kg | 80.3 mg/kg | 1000 to 2000 mg/kg | – | – | –
C/C=C/C(=O)CC/C(C)=C/CC/C(C)=C/CO [D, (all-E)-13-hydroxy-7,11-dimethyl-2,7,11-tridecatrien-4-one] | 0.79 mg/kg | 66 mg/kg | 1000 to 2000 mg/kg | – | – | –
C#CC(CC/C(C)=C/CC/C(C)=C/CO)(OCC)OCC [E, (all-E)-10,10-diethoxy-3,7-dimethyl-2,6-dodecadien-11-yn-1-ol] | 0.93 mg/kg | 18.4 mg/kg | – | – | – | –
C=C(C)C(=O)CC/C(C)=C/CC/C(C)=C/CO [F, (all-E)-12-hydroxy-2,6,10-trimethyl-1,6,10-dodecatrien-3-one] | 1.3 mg/kg | 27.7 mg/kg | 625 to 1250 mg/kg | – | – | –
C=C(C)C(=O)CC/C(C)=C/CC/C(C)=C/C=O [G, (all-E)-10-oxo-3,7,11-trimethyl-2,6,11-dodecatrienal] | 1.8 mg/kg | 62.4 mg/kg | 1000 to 2000 mg/kg | – | – | –
C=C(C)C(=O)CC/C(C)=C\CC/C(C)=C\CO [H, (6Z,10Z)-12-hydroxy-2,6,10-trimethyl-1,6,10-dodecatrien-3-one] | 1.8 mg/kg | 57.7 mg/kg | – | 2500 to 5000 mg/kg | – | –
C=C(C)C1(CC/C(C)=C/CC/C(C)=C/CO)OCCO1 [I, (all-E)-3,7-Dimethyl-9-[2-(1-methylvinyl)-1,3-dioxolan-2-yl]-2,6-nonadien-1-ol] | 2.7 mg/kg | 13.2 mg/kg | > 4000 mg/kg | – | – | –
C=C(C)C(=O)CC/C(C)=C/CC/C(C)=C/C(N)=O [J, (E,E)-3,7,11-trimethyl-10-oxo-2,6,11-dodecatrienamide] | – | – | – | 1000 to 2000 mg/kg | 3.4 mg/kg | 63.9 mg/kg
CC(C)=CC(=O)CC/C(C)=C/CC/C(C)=C/CO [K, (all-E)-13-hydroxy-2,7,11-trimethyl-2,7,11-tridecatrien-4-one] | 3.6 mg/kg | 60.8 mg/kg | – | – | – | –
C=C(C)C(=O)CC/C(C)=C/CC/C(C)=C\CO [L, (6E,10Z)-12-hydroxy-2,6,10-trimethyl-1,6,10-dodecatrien-3-one] | 4.4 mg/kg | 73.4 mg/kg | – | 625 to 1250 mg/kg | – | –
C=C(C)C(=O)CC/C(C)=C\CC/C(C)=C/CO [M, (6Z,10E)-12-hydroxy-2,6,10-trimethyl-1,6,10-dodecatrien-3-one] | 4.5 mg/kg | 62.7 mg/kg | – | 2500 to 5000 mg/kg | – | –
C=C(C)C(O)CC/C(C)=C/CC/C(C)=C/CO (stereo not drawn) [N, (all-E)-3,7,11-trimethyl-2,6,11-dodecatriene-1,10-diol] | 3.2 mg/kg | 41.6 mg/kg | > 2000 mg/kg | – | – | –
C=C(C)C(O)CC/C(C)=C/CC/C(C)=C/C(=O)O (stereo not drawn) [O, (all-E)-10-hydroxy-3,7,11-trimethyl-2,6,11-dodecatrienoic acid] | 26.8 mg/kg | 48.8 mg/kg | 1250 to 2500 mg/kg | – | – | –
C=C(C)C(=O)CC/C(C)=C/CC/C(C)=C/C(=O)O [P, (all-E)-10-Oxo-3,7,11-trimethyl-2,6,11-dodecatrienoic acid] | 5 mg/kg | 79.6 mg/kg | 1250 to 2500 mg/kg | – | – | –
C=C(C)C(CC/C(C)=C/CC/C(C)=C/CO)(OC)OC [Q, (all-E)-10,10-dimethoxy-3,7,11-trimethyl-2,6,11-dodecatrien-1-ol] | 5.3 mg/kg | 4.7 mg/kg | > 5000 mg/kg | – | – | –
C=C(C)C(O)CC/C(C)=C/CC/C(C)=C/C=O (stereo not drawn) [R, (all-E)-10-hydroxy-3,7,11-trimethyl-2,6,11-dodecatrienal] | 6.4 mg/kg | 28.6 mg/kg | > 5000 mg/kg | – | – | –
C/C(=C\CO)CC/C=C(\C)CCC(=O)C#C[Si](C)(C)C [S, (all-E)-12-hydroxy-6,10-dimethyl-1-(trimethylsilyl)-6,10-dodecadien-1-yn-3-one] | – | – | – | – | 6.5 mg/kg | 46.9 mg/kg
